Source: the supplement of paper PMC8612539

Experiments:
Enterococcus spp. = assay: minimum inhibitory concentration (MIC)
Experimental: (§1)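 Broth microdilution MIC (Sensititre BOPO7F bovine plate, CLSI methods) of 19 antimicrobials against field isolates of P. multocida, M. haemolytica, H. somni (deep nasopharyngeal swabs) and E. coli, Enterococcus spp. (rectal swabs) from weaned dairy heifers. Incubation 16-24 h at 35 C. MIC is the lowest concentration preventing visible growth. Values with <= or > lie at the tested range limits. Trimethoprim-sulfamethoxazole is given as the trimethoprim component of a 1:19 mixture.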

Mannheimia haemolytica = assay: minimum inhibitory concentration (MIC)
Experimental: as §1

COc1cc(Cc2cnc(N)nc2N)cc(OC)c1OC.Cc1cc(NS(=O)(=O)c2ccc(N)cc2)no1 [trimethoprim-sulfamethoxazole]
minimum inhibitory concentration [µg/mL]
Conditions | Enterococcus spp. | Mannheimia haemolytica
isolate (source animal id): 2 | ≤ 2 | –
isolate (source animal id): 3 | – | ≤ 2
isolate (source animal id): 8 | – | ≤ 2
isolate (source animal id): 13 | – | ≤ 2
isolate (source animal id): 18 | – | ≤ 2
isolate (source animal id): 21 | – | ≤ 2
isolate (source animal id): 25 | – | ≤ 2
isolate (source animal id): 27 | – | ≤ 2
isolate (source animal id): 28 | – | ≤ 2
isolate (source animal id): 30 | – | ≤ 2
isolate (source animal id): 31 | – | ≤ 2
isolate (source animal id): 32 | – | ≤ 2
isolate (source animal id): 34 | – | ≤ 2
isolate (source animal id): 35 | > 2 | –
isolate (source animal id): 36 | – | ≤ 2
isolate (source animal id): 37 | – | ≤ 2
isolate (source animal id): 40 | – | ≤ 2
isolate (source animal id): 41 | – | ≤ 2
isolate (source animal id): 42 | ≤ 2 | –
isolate (source animal id): 43 | – | ≤ 2
isolate (source animal id): 44 | > 2 | –
isolate (source animal id): 46 | – | ≤ 2
isolate (source animal id): 49 | – | ≤ 2
isolate (source animal id): 50 | – | ≤ 2
isolate (source animal id): 51 | – | ≤ 2
isolate (source animal id): 52 | – | ≤ 2
isolate (source animal id): 53 | – | ≤ 2
isolate (source animal id): 55 | – | ≤ 2
isolate (source animal id): 56 | – | ≤ 2
isolate (source animal id): 57 | – | ≤ 2
isolate (source animal id): 60 | – | > 2
isolate (source animal id): 61 | – | ≤ 2
isolate (source animal id): 64 | – | ≤ 2
isolate (source animal id): 65 | – | ≤ 2
isolate (source animal id): 66 | – | > 2
isolate (source animal id): 67 | – | ≤ 2
isolate (source animal id): 68 | – | ≤ 2
isolate (source animal id): 70 | – | ≤ 2
isolate (source animal id): 72 | – | ≤ 2
isolate (source animal id): 74 | – | ≤ 2
isolate (source animal id): 76 | – | ≤ 2
isolate (source animal id): 79 | ≤ 2 | –
isolate (source animal id): 80 | – | ≤ 2
isolate (source animal id): 82 | – | ≤ 2
isolate (source animal id): 83 | – | ≤ 2
isolate (source animal id): 84 | – | ≤ 2
isolate (source animal id): 85 | – | ≤ 2
isolate (source animal id): 86 | – | ≤ 2
isolate (source animal id): 87 | – | > 2
isolate (source animal id): 88 | ≤ 2 | –
isolate (source animal id): 91 | ≤ 2 | –
isolate (source animal id): 92 | ≤ 2 | –
isolate (source animal id): 100 | – | > 2
isolate (source animal id): 103 | – | ≤ 2
isolate (source animal id): 107 | – | ≤ 2
isolate (source animal id): 108 | – | ≤ 2
isolate (source animal id): 111 | ≤ 2 | –
isolate (source animal id): 112 | – | ≤ 2
isolate (source animal id): 113 | – | ≤ 2
isolate (source animal id): 121 | – | ≤ 2
isolate (source animal id): 122 | > 2 | ≤ 2
isolate (source animal id): 123 | ≤ 2 | ≤ 2
isolate (source animal id): 126 | – | ≤ 2
isolate (source animal id): 133 | ≤ 2 | ≤ 2
isolate (source animal id): 135 | – | ≤ 2
isolate (source animal id): 138 | – | ≤ 2
isolate (source animal id): 141 | – | ≤ 2
isolate (source animal id): 142 | – | ≤ 2
isolate (source animal id): 145 | – | ≤ 2
isolate (source animal id): 149 | – | ≤ 2
isolate (source animal id): 151 | – | ≤ 2
isolate (source animal id): 152 | – | ≤ 2
isolate (source animal id): 154 | – | ≤ 2
isolate (source animal id): 158 | > 2 | –
isolate (source animal id): 159 | – | ≤ 2
isolate (source animal id): 162 | – | ≤ 2
isolate (source animal id): 168 | ≤ 2 | –
isolate (source animal id): 169 | ≤ 2 | –
isolate (source animal id): 170 | – | ≤ 2
isolate (source animal id): 171 | ≤ 2 | ≤ 2
isolate (source animal id): 172 | – | ≤ 2
isolate (source animal id): 173 | – | ≤ 2
isolate (source animal id): 175 | ≤ 2 | –
isolate (source animal id): 177 | ≤ 2 | –
isolate (source animal id): 179 | – | ≤ 2
isolate (source animal id): 180 | – | ≤ 2
isolate (source animal id): 181 | ≤ 2 | –
isolate (source animal id): 182 | ≤ 2 | –
isolate (source animal id): 183 | ≤ 2 | ≤ 2
isolate (source animal id): 186 | – | ≤ 2
isolate (source animal id): 187 | ≤ 2 | ≤ 2
isolate (source animal id): 188 | – | ≤ 2
isolate (source animal id): 190 | ≤ 2 | ≤ 2
isolate (source animal id): 191 | – | ≤ 2
isolate (source animal id): 192 | – | ≤ 2
isolate (source animal id): 194 | ≤ 2 | –
isolate (source animal id): 195 | ≤ 2 | –
isolate (source animal id): 197 | ≤ 2 | –
isolate (source animal id): 201 | – | ≤ 2
isolate (source animal id): 202 | – | ≤ 2
isolate (source animal id): 209 | – | ≤ 2
isolate (source animal id): 211 | ≤ 2 | ≤ 2
isolate (source animal id): 214 | > 2 | –
isolate (source animal id): 220 | – | ≤ 2
isolate (source animal id): 221 | – | ≤ 2
isolate (source animal id): 222 | ≤ 2 | –
isolate (source animal id): 223 | ≤ 2 | ≤ 2
isolate (source animal id): 228 | ≤ 2 | –
isolate (source animal id): 230 | ≤ 2 | –
isolate (source animal id): 233 | – | ≤ 2
isolate (source animal id): 235 | ≤ 2 | –
isolate (source animal id): 236 | ≤ 2 | –
isolate (source animal id): 237 | – | ≤ 2
isolate (source animal id): 239 | ≤ 2 | –
isolate (source animal id): 241 | ≤ 2 | ≤ 2
isolate (source animal id): 244 | ≤ 2 | –
isolate (source animal id): 246 | ≤ 2 | –
isolate (source animal id): 247 | ≤ 2 | –
isolate (source animal id): 250 | ≤ 2 | –
isolate (source animal id): 252 | > 2 | ≤ 2
isolate (source animal id): 253 | – | ≤ 2
isolate (source animal id): 259 | – | ≤ 2
isolate (source animal id): 260 | – | ≤ 2
isolate (source animal id): 262 | – | ≤ 2
isolate (source animal id): 268 | ≤ 2 | –
isolate (source animal id): 282 | ≤ 2 | ≤ 2
isolate (source animal id): 285 | > 2 | –
isolate (source animal id): 287 | – | ≤ 2
isolate (source animal id): 288 | – | ≤ 2
isolate (source animal id): 289 | ≤ 2 | –
isolate (source animal id): 290 | ≤ 2 | –
isolate (source animal id): 291 | – | ≤ 2
isolate (source animal id): 293 | – | ≤ 2
isolate (source animal id): 296 | ≤ 2 | –
isolate (source animal id): 298 | ≤ 2 | ≤ 2
isolate (source animal id): 299 | – | ≤ 2
isolate (source animal id): 300 | – | ≤ 2
isolate (source animal id): 301 | ≤ 2 | –
isolate (source animal id): 302 | – | ≤ 2
isolate (source animal id): 304 | – | ≤ 2
isolate (source animal id): 306 | – | ≤ 2
isolate (source animal id): 308 | – | ≤ 2
isolate (source animal id): 309 | – | ≤ 2
isolate (source animal id): 310 | > 2 | –
isolate (source animal id): 313 | – | ≤ 2
isolate (source animal id): 318 | – | ≤ 2
isolate (source animal id): 320 | ≤ 2 | ≤ 2
isolate (source animal id): 321 | – | ≤ 2
isolate (source animal id): 323 | – | ≤ 2
isolate (source animal id): 324 | – | ≤ 2
isolate (source animal id): 326 | – | ≤ 2
isolate (source animal id): 328 | – | ≤ 2
isolate (source animal id): 329 | – | ≤ 2
isolate (source animal id): 331 | ≤ 2 | –
isolate (source animal id): 333 | ≤ 2 | ≤ 2
isolate (source animal id): 335 | – | ≤ 2
isolate (source animal id): 338 | – | ≤ 2
isolate (source animal id): 341 | > 2 | –
